Species: Rattus norvegicus
Assay: Open TG-GATES - Regimen: Daily Repeat
Type: toxicity, organism-based, Sprague-Dawley
Parameters: regimen Daily Repeat, gender Male, age 6 weeks
Details: in vivo, sc, 0.002 mg/kg, route subcutaneous injection, dose 2 ug/Kg, dose level Low; for APTT / Bas / Eos / Fbg / Hb / Ht / Lym / MCH / MCHC / MCV / Mono / Neu / PT / Plat / RBC / Ret / WBC: tissue Blood
[1] = 72 h, tissue Kidney, time 3 day
[2] = 72 h, tissue Plasma, time 3 day

`CC(=O)O.N=C(N)NCCC[C@@H](NC(=O)[C@@H]1CCCN1C(=O)[C@@H]1CSSCCC(=O)N[C@@H](Cc2ccc(O)cc2)C(=O)N[C@@H](Cc2ccccc2)C(=O)N[C@@H](CCC(N)=O)C(=O)N[C@@H](CC(N)=O)C(=O)N1)C(=O)NCC(N)=O` [DESMOPRESSIN ACETATE] showed a TERMINAL_BW (72 h, time 3 day) of 236.2 g, an APTT (72 h, time 3 day) of 16.3 s and a Bas (72 h, time 3 day) of 0%. It also gave an Eos (72 h, time 3 day) of 1.2%, a Fbg (72 h, time 3 day) of 261.2 mg/dL and a Hb (72 h, time 3 day) of 13.3 g/dL. The Ht (72 h, time 3 day) was 41%, the Lym (72 h, time 3 day) was 72% and the MCH (72 h, time 3 day) was 21.1 pg. It also gave an MCHC (72 h, time 3 day) of 32.4%, an MCV (72 h, time 3 day) of 65.2 fL and a Mono (72 h, time 3 day) of 8.6%. The Neu (72 h, time 3 day) was 18.2%, the PT (72 h, time 3 day) was 12.2 s and the Plat (72 h, time 3 day) was 133.6 x10_4/uL. The RBC (72 h, time 3 day) was 630 x10_4/ul, the Ret (72 h, time 3 day) was 8.4% and the WBC (72 h, time 3 day) was 92.6 x10_2/uL. For the same molecule, the KIDNEY_L [1] was 1 g, the KIDNEY_R [1] was 1 g and the KIDNEY_TOTAL [1] was 2.1 g. It also gave an LIVER (72 h, tissue Liver, time 3 day) of 10.6 g, an A/G [2] of 2 and an ALP [2] of 1631.2 IU/L. The ALT [2] was 37 IU/L, the AST [2] was 69.2 IU/L and the BUN [2] was 15 mg/dL. For the same molecule, the CRE [2] was 0.4 mg/dL, the Ca [2] was 11.2 mg/dL and the Cl [2] was 104.8 meq/L. The DBIL [2] was 0.01 mg/dL, the GLC [2] was 199 mg/dL and the IP [2] was 7.1 mg/dL. It also gave a K [2] of 5.1 meq/L, an LDH [2] of 180.4 IU/L and a Na [2] of 136.8 meq/L. The PL [2] was 146.4 mg/dL, the RALB [2] was 3.7 g/dL and the TBIL [2] was 0.034 mg/dL. It also gave a TC [2] of 79.2 mg/dL, a TG [2] of 95.2 mg/dL and a TP [2] of 5.6 g/dL. It also gave a gamma-GTP [2] of 1 IU/L, a TERMINAL_BW ([…], time 7 day) of 262 g and a TERMINAL_BW ([…], time 14 day) of 330.1 g. For the same molecule, the TERMINAL_BW ([…], time 28 day) was 414.7 g, the APTT ([…], time 7 day) was 16.7 s and the Bas ([…], time 7 day) was 0%. It also gave an Eos ([…], time 7 day) of 1%, a Fbg ([…], time 7 day) of 265.2 mg/dL and a Hb ([…], time 7 day) of 13.9 g/dL. For the same molecule, the Ht ([…], time 7 day) was 42.7%, the Lym ([…], time 7 day) was 70% and the MCH ([…], time 7 day) was 21.2 pg. For the same molecule, the MCHC ([…], time 7 day) was 32.5%, the MCV ([…], time 7 day) was 65.2 fL and the Mono ([…], time 7 day) was 9.4%. It also gave a Neu ([…], time 7 day) of 19.8%, a PT ([…], time 7 day) of 12.1 s and a Plat ([…], time 7 day) of 106 x10_4/uL. For the same molecule, the RBC ([…], time 7 day) was 655.8 x10_4/ul, the Ret ([…], time 7 day) was 6.9% and the WBC ([…], time 7 day) was 101 x10_2/uL. The APTT ([…], time 14 day) was 16.6 s, the Bas ([…], time 14 day) was 0% and the Eos ([…], time 14 day) was 1%. For the same molecule, the Fbg ([…], time 14 day) was 253.8 mg/dL, the Hb ([…], time 14 day) was 14 g/dL and the Ht ([…], time 14 day) was 42.8%. For the same molecule, the Lym ([…], time 14 day) was 75%, the MCH ([…], time 14 day) was 20.2 pg and the MCHC ([…], time 14 day) was 32.8%. It also gave an MCV ([…], time 14 day) of 61.5 fL, a Mono ([…], time 14 day) of 8.6% and a Neu ([…], time 14 day) of 15.2%. The PT ([…], time 14 day) was 12.1 s, the Plat ([…], time 14 day) was 134.8 x10_4/uL and the RBC ([…], time 14 day) was 696.6 x10_4/ul. For the same molecule, the Ret ([…], time 14 day) was 5.6%, the WBC ([…], time 14 day) was 119.2 x10_2/uL and the APTT ([…], time 28 day) was 17.5 s. It also gave a Bas ([…], time 28 day) of 0%, an Eos ([…], time 28 day) of 1.2% and a Fbg ([…], time 28 day) of 251.8 mg/dL. For the same molecule, the Hb ([…], time 28 day) was 15.1 g/dL and the Ht ([…], time 28 day) was 46%.
